Laboratory results reported in patent US20240342158A1, “METHOD OF TREATING AND/OR PREVENTING TYPE 1 DIABETES WITH CEPHARANTHINE” (ALBERT EINSTEIN COLLEGE OF MEDICINE, priority 2021, published 2024).

Legend:
[1] = system: splenocytes and draining lymph node cells of immunized NOD-DR3 mice; assay: Small molecule inhibition of cytokine production ex vivo (Milliplex); format: cell-based, humanized NOD-DR3 mice
Protocol: Cytokine Assays: Milliplex mouse cytokines/chemokine magnetic panel (Catalog no. MCYTOMAG-70K, EMD Millipore Corporation, Billerica, MA) was used to assay the cytokines, as described in the art. Briefly, splenocytes were plated at 2×10^6 cells per well in 500 μl of medium (RPMI/10% FBS). Supernatants from stimulated lymphocytes were collected 48 h after stimulation with peptides and stored in −80° C. until the assay was performed. The 96-well plate supplied in the kit was washed with the wash buffer supplied and the plate was shaken for 10 min at room temperature. Standards and quality controls were added, followed by the samples. The pre-mixed beads (Interferon gamma and IL-2) were sonicated, vortexed and added to the wells. After shaking the plate overnight at 4° C., the plate was washed twice with wash buffer. Detection antibodies were added for 1 h at room temperature, and Streptavidin-Phycoerythrin was added for 30 min at room temperature. The plate was washed twice and sheath fluid was added to resuspend the beads for 5 min before reading in Luminex 200 with xPONENT software (Luminex, Austin, Texas).
Small Molecule Inhibition of Cytokine Production Ex Vivo: Eight NOD-DR3 mice were immunized with the three thyroidal/islet peptides. Upon sacrifice, splenocytes were incubated with 1 μM of small molecules (S5, S9, S15, S53) together with TPO.758 (20 μg/ml), GAD.492 (20 μg/ml) or Tg.1571 (20 μg/ml) respectively to assess the blockade of these peptides' presentation by the tested small molecules. Supernatants from stimulated lymphocytes were collected 48 h after stimulation with peptides and small molecules, and stored in −80° C. until the cytokine assay was performed. […]

[2] = system: humanized NOD-DR3 mice immunized with Tg.1571, GAD.492 and TPO.758; assay: Blocking the induction of APS3v in vivo: T-cell stimulation by CFSE analysis; set-up: stimulation index, T cell proliferation induced by GAD.492 / stimulation index, T cell proliferation induced by TPO.758 / T-cell proliferation induced by Tg.1571: dose or concentration left out as unconfirmed
Protocol: Blocking the Induction of APS3v by cepharanthine In Vivo: […] with the peptide mix of Tg.1571, GAD.492 and TPO.758 on day 0; mice were injected with cepharanthine IP again on days 5 and 6 prior to immunization with the same peptide mix on day 7. As controls, four humanized NOD-DR3 littermates were injected with the vehicle that was used to dissolve cepharanthine for in vivo studies [ethanol: PEG400 (Fisher Scientific): saline (5:20:75)] (Frontage Laboratories, Exton, PA) using the same timeline for immunizations.
T-Cell Stimulation and CFSE Analysis: Cells harvested from the spleen and draining lymph nodes of immunized mice were resuspended at 2×10^6 cells/ml in 0.1% BSA/PBS. 1×10^6 cells were labeled with 1.5 μM carboxyfluorescein diacetate succinimidyl ester (CFSE) (Life Technologies). After incubating for 10 min at 37° C., the staining was terminated by the addition of 4 volumes of ice-cold RPMI with 10% FBS. After incubating on ice for 5 min, the cells were washed three times with fresh RPMI and resuspended in fresh medium for counting.
The CFSE-labeled cells were plated at 2×10^5 cells/well in 100 μl medium (RPMI, 10% FBS). The cells were incubated with: medium, Tg.1571, GAD.492, TPO.758 (20 μg/ml), a negative control peptide (NC) (20 μg/ml), or mouse anti-CD3/CD28 beads (Life Technologies) that activate all CD4+ T-cells nonspecifically, as a positive control. The cells were collected after 5 days for flow cytometry analysis. All experiments were performed in quadruplicates. The results were analyzed using Flowjo (Tree Star, Ashland, OR). The stimulation index was calculated by using the following formula: stimulation index=[% proliferating lymphocytes (peptide/mitogen-treated)]/[% proliferating lymphocytes (medium-treated)].
Four humanized NOD-DR3mice were treated with cepharanthine (S53) or vehicle (used to dissolve cepharanthine) for 2 consecutive days before each of the two immunizations with Tg.1571,GAD.492 and TPO.758 peptide mix. At sacrifice, splenocytes and draining lymph node cells were incubated with each peptide and labeled with CFSE for 5 days for T-cell stimulation analysis. Briefly, the CFSE labeled cells were plated at 2×10^5 cells/well in 100 μl medium (RPMI, 10% FBS).The cells were incubated with: medium, Tg.1571, GAD.492, TPO.758 (20 μg/ml), a negative control peptide (NC) (20 μg/ml), or mouse anti-CD3/CD28 beads (Life Technologies) that activate all CD4+ T-cells non-specifically, as a positive control. The cells were collected after 5 days for flow cytometry analysis (see Materials and Methods for details).

Q: COc1ccc2cc1Oc1ccc(cc1)C[C@H]1c3c(cc4c(c3Oc3cc5c(cc3OC)CCN(C)[C@@H]5C2)OCO4)CCN1C [S53, Cepharanthine] was tested. Which “IFN-g production in response to Tg.1571” value ([1]; 1 μM small molecule + Tg.1571 20 μg/ml, 48 h) did it give?
A: did not significantly reduce

Q: And the “inhibition of T-cell activation to all 3 peptides (production of IFNγ and IL-2)” value ([1]; 1 micromolar, Tg.1571, GAD.492, TPO.758)?
A: consistently inhibited T-cell activation to all 3 peptides

Q: What about the “stimulation index, T cell proliferation induced by GAD.492” value ([2]; -1, 5, 6, CFSE, 5 days, vehicle control 3.21) of the same compound?
A: 1.53

Q: And the “stimulation index, T cell proliferation induced by TPO.758” value ([2]; -1, 5, 6, CFSE, 5 days, vehicle control 6.39)?
A: 3.11

Q: What about the “T-cell proliferation induced by Tg.1571” value ([2]; -1, 5, 6, CFSE, 5 days, vs vehicle) of the same compound?
A: suppressed T-cell proliferation induced by Tg.1571, although not statistically significant

Q: And the “T-cell activation (lymphocyte proliferation, CFSE) in treated mice vs vehicle treated controls” value ([2]; IV on days -2, -1, 5 and 6 at 1 mg/kg, sacrificed day 21)?
A: significantly suppressed T-cell activation
